Results from ChEMBL document CHEMBL4673219, “Novel 5,6-disubstituted pyrrolo[2,3-d]pyrimidine derivatives as broad spectrum antiproliferative agents: Synthesis, cell based assays, kinase profile and molecular docking study” (Bioorg Med Chem, 2018).

Experiments:
Assay type in all cases: functional
MDA-MB-468 [1] = assay: Growth inhibition of human MDA-MB-468 cells assessed as growth percentage at 10 uM incubated for 48 hrs by sulforhodamine B assay relative to control; settings: read-out: Activity
T47D = assay: Growth inhibition of human T47D cells assessed as growth percentage at 10 uM incubated for 48 hrs by sulforhodamine B assay relative to control; settings: read-out: Activity
MCF7 = assay: Growth inhibition of human MCF7 cells assessed as growth percentage at 10 uM incubated for 48 hrs by sulforhodamine B assay relative to control; settings: read-out: Activity
ACHN = assay: Growth inhibition of human ACHN cells assessed as growth percentage at 10 uM incubated for 48 hrs by sulforhodamine B assay relative to control; settings: read-out: Activity
786-0 = assay: Growth inhibition of human 786-0 cells assessed as growth percentage at 10 uM incubated for 48 hrs by sulforhodamine B assay relative to control; settings: read-out: Activity
Malme-3M [2] = assay: Growth inhibition of human Malme-3M cells assessed as growth percentage at 10 uM incubated for 48 hrs by sulforhodamine B assay relative to control; settings: read-out: Activity
NCI-H522 [3] = assay: Growth inhibition of human NCI-H522 cells assessed as growth percentage at 10 uM incubated for 48 hrs by sulforhodamine B assay relative to control; settings: read-out: Activity
RPMI-8226 = assay: Growth inhibition of human RPMI-8226 cells assessed as growth percentage at 10 uM incubated for 48 hrs by sulforhodamine B assay relative to control; settings: read-out: Activity
HL-60(TB) = assay: Growth inhibition of human HL-60(TB) cells assessed as growth percentage at 10 uM incubated for 48 hrs by sulforhodamine B assay relative to control; settings: read-out: Activity
CCRF-CEM [4] = assay: Growth inhibition of human CCRF-CEM cells assessed as growth percentage at 10 uM incubated for 48 hrs by sulforhodamine B assay relative to control; settings: read-out: Activity
DU-145 [5] = assay: Growth inhibition of human DU-145 cells incubated for 48 hrs by sulforhodamine B assay; settings: for GI50 / TGI: DU-145
Malme-3M [6] = assay: Growth inhibition of human Malme-3M cells incubated for 48 hrs by sulforhodamine B assay; settings: for GI50: 48 h
PC-3 [7] = assay: Growth inhibition of human PC-3 cells assessed as growth percentage at 100 uM incubated for 48 hrs by sulforhodamine B assay relative to control; settings: read-out: Activity
NCI/ADR-RES = assay: Growth inhibition of human NCI/ADR-RES cells assessed as growth percentage at 100 uM incubated for 48 hrs by sulforhodamine B assay relative to control; settings: read-out: Activity
OVCAR-4 = assay: Growth inhibition of human OVCAR-4 cells assessed as growth percentage at 100 uM incubated for 48 hrs by sulforhodamine B assay relative to control; settings: read-out: Activity
OVCAR-3 = assay: Growth inhibition of human OVCAR-3 cells assessed as growth percentage at 100 uM incubated for 48 hrs by sulforhodamine B assay relative to control; settings: read-out: Activity
M14 [8] = assay: Growth inhibition of human M14 cells assessed as growth percentage at 100 uM incubated for 48 hrs by sulforhodamine B assay relative to control; settings: read-out: Activity
U-251 [9] = assay: Growth inhibition of human U-251 cells assessed as growth percentage at 100 uM incubated for 48 hrs by sulforhodamine B assay relative to control; settings: read-out: Activity
SF-268 = assay: Growth inhibition of human SF-268 cells assessed as growth percentage at 100 uM incubated for 48 hrs by sulforhodamine B assay relative to control; settings: read-out: Activity
COLO 205 = assay: Growth inhibition of human COLO 205 cells assessed as growth percentage at 100 uM incubated for 48 hrs by sulforhodamine B assay relative to control; settings: read-out: Activity
NCI-H322M = assay: Growth inhibition of human NCI-H322M cells assessed as growth percentage at 100 uM incubated for 48 hrs by sulforhodamine B assay relative to control; settings: read-out: Activity
CCRF-CEM [10] = assay: Growth inhibition of human CCRF-CEM cells assessed as growth percentage at 100 uM incubated for 48 hrs by sulforhodamine B assay relative to control; settings: read-out: Activity
IGROV-1 = assay: Growth inhibition of human IGROV-1 assessed as growth percent at 1 uM incubated for 48 hrs by sulforhodamine B assay relative to control; settings: read-out: Activity
M14 [11] = assay: Growth inhibition of human M14 cells assessed as growth percentage at 1 uM incubated for 48 hrs by sulforhodamine B assay relative to control; settings: read-out: Activity
U-251 [12] = assay: Growth inhibition of human U-251 cells assessed as growth percentage at 1 uM incubated for 48 hrs by sulforhodamine B assay relative to control; settings: read-out: Activity
SNB-19 [13] = assay: Growth inhibition of human SNB-19 cells assessed as growth percentage at 1 uM incubated for 48 hrs by sulforhodamine B assay relative to control; settings: read-out: Activity
HOP-92 = assay: Growth inhibition of human HOP-92 cells assessed as growth percentage at 1 uM incubated for 48 hrs by sulforhodamine B assay relative to control; settings: read-out: Activity
MOLT-4 [14] = assay: Growth inhibition of human MOLT-4 cells assessed as growth percentage at 1 uM incubated for 48 hrs by sulforhodamine B assay relative to control; settings: read-out: Activity
CCRF-CEM [15] = assay: Growth inhibition of human CCRF-CEM cells assessed as growth percentage at 1 uM incubated for 48 hrs by sulforhodamine B assay relative to control; settings: read-out: Activity
DU-145 [16] = assay: Growth inhibition of human DU-145 cells assessed as growth percentage at 0.1 uM incubated for 48 hrs by sulforhodamine B assay relative to control; settings: read-out: Activity
U-251 [17] = assay: Growth inhibition of human U-251 cells assessed as growth percentage at 0.1 uM incubated for 48 hrs by sulforhodamine B assay relative to control; settings: read-out: Activity
HCC 2998 = assay: Growth inhibition of human HCC 2998 cells assessed as growth percentage at 0.1 uM incubated for 48 hrs by sulforhodamine B assay relative to control; settings: read-out: Activity
MDA-MB-468 [18] = assay: Growth inhibition of human MDA-MB-468 cells assessed as growth percentage at 0.01 uM incubated for 48 hrs by sulforhodamine B assay relative to control; settings: read-out: Activity
PC-3 [19] = assay: Growth inhibition of human PC-3 cells assessed as growth percentage at 0.01 uM incubated for 48 hrs by sulforhodamine B assay relative to control; settings: read-out: Activity
SNB-19 [20] = assay: Growth inhibition of human SNB-19 cells assessed as growth percentage at 0.01 uM incubated for 48 hrs by sulforhodamine B assay relative to control; settings: read-out: Activity
SW-620 = assay: Growth inhibition of human SW-620 cells assessed as growth percentage at 0.01 uM incubated for 48 hrs by sulforhodamine B assay relative to control; settings: read-out: Activity
KM12 = assay: Growth inhibition of human KM12 cells assessed as growth percentage at 0.01 uM incubated for 48 hrs by sulforhodamine B assay relative to control; settings: read-out: Activity
HCT-15 = assay: Growth inhibition of human HCT-15 cells assessed as growth percentage at 0.01 uM incubated for 48 hrs by sulforhodamine B assay relative to control; settings: read-out: Activity
NCI-H522 [21] = assay: Growth inhibition of human NCI-H522 cells assessed as growth percentage at 0.01 uM incubated for 48 hrs by sulforhodamine B assay relative to control; settings: read-out: Activity
MOLT-4 [22] = assay: Growth inhibition of human MOLT-4 cells assessed as growth percentage at 0.01 uM incubated for 48 hrs by sulforhodamine B assay relative to control; settings: read-out: Activity

Molecule `Nc1nc2[nH]c(CN3CCN(c4cc(Cl)cc(Cl)c4)CC3)c(CN3CCN(c4cc(Cl)cc(Cl)c4)CC3)c2c(=O)[nH]1` has a growth at 10 µM (MDA-MB-468 [1]) of 40.1%, a growth at 10 µM (T47D) of 62.9% and a growth at 10 µM (MCF7) of 23.4%. The growth at 10 µM (ACHN) was 96.8%, the growth at 10 µM (786-0) was 72.6% and the growth at 10 µM (Malme-3M [2]) was 74.3%. For the same molecule, the growth at 10 µM (NCI-H522 [3]) was 83.3%, the growth at 10 µM (RPMI-8226) was 38.4% and the growth at 10 µM (HL-60(TB)) was 24.4%. The growth at 10 µM (CCRF-CEM [4]) was 45.1%, the GI50 (DU-145 [5]) was 1920 nM and the TGI (DU-145 [5]) was 3460 nM. For the same molecule, the CC50 (DU-145 [5]; DU-145, 48 h, read-out: LC50 (the source's name)) was 6240 nM, the TGI (Malme-3M [6]; Homo sapiens, Malme-3M) was 3930 nM and the GI50 (Malme-3M [6]; Homo sapiens, Malme-3M) was 2000 nM. For the same molecule, the growth at 100 µM (PC-3 [7]) was -81%, the growth at 100 µM (NCI/ADR-RES) was 55% and the growth at 100 µM (OVCAR-4) was -82%. For the same molecule, the growth at 100 µM (OVCAR-3) was -84%, the growth at 100 µM (M14 [8]) was -54% and the growth at 100 µM (U-251 [9]) was -50%. It also gave a growth at 100 µM (SF-268) of -59%, a growth at 100 µM (COLO 205) of -45% and a growth at 100 µM (NCI-H322M) of -54%. The growth at 100 µM (CCRF-CEM [10]) was -30%, the growth at 1 µM (IGROV-1) was 96% and the growth at 1 µM (M14 [11]) was 94%. It also gave a growth at 1 µM (U-251 [12]) of 90%, a growth at 1 µM (SNB-19 [13]) of 89% and a growth at 1 µM (HOP-92) of 65%. The growth at 1 µM (MOLT-4 [14]) was 90%, the growth at 1 µM (CCRF-CEM [15]) was 87% and the growth at 0.1 µM (DU-145 [16]) was 109%. For the same molecule, the growth at 0.1 µM (U-251 [17]) was 97%, the growth at 0.1 µM (HCC 2998) was 99% and the growth at 0.01 µM (MDA-MB-468 [18]) was 97%. For the same molecule, the growth at 0.01 µM (PC-3 [19]) was 97%, the growth at 0.01 µM (SNB-19 [20]) was 96% and the growth at 0.01 µM (SW-620) was 96%. For the same molecule, the growth at 0.01 µM (KM12) was 101%, the growth at 0.01 µM (HCT-15) was 98% and the growth at 0.01 µM (NCI-H522 [21]) was 95%. It also gave a growth at 0.01 µM (MOLT-4 [22]) of 100%.
`CCCCCCCC(=O)Nc1nc2[nH]c(CN3CCN(Cc4cccc(F)c4)CC3)c(CN3CCN(Cc4cccc(F)c4)CC3)c2c(=O)[nH]1` was tested, and the growth at 10 µM (MDA-MB-468 [1]) was -68.7%, the growth at 10 µM (T47D) was -84.2% and the growth at 10 µM (MCF7) was -72.9%. For the same molecule, the growth at 10 µM (ACHN) was -96.6%, the growth at 10 µM (786-0) was -100% and the growth at 10 µM (Malme-3M [2]) was -83.1%. It also gave a growth at 10 µM (NCI-H522 [3]) of -71.5%, a growth at 10 µM (RPMI-8226) of -47.3% and a growth at 10 µM (HL-60(TB)) of -60.1%. It also gave a growth at 10 µM (CCRF-CEM [4]) of -25.8%, a GI50 (DU-145 [5]) of 1100 nM and a TGI (DU-145 [5]) of 2420 nM. For the same molecule, the GI50 (Malme-3M [6]) was 670 nM, the TGI (Malme-3M [6]; Homo sapiens, Malme-3M) was 2240 nM and the GI50 (Malme-3M [6]; Homo sapiens, Malme-3M) was 672 nM. The CC50 (Malme-3M [6]; Homo sapiens, Malme-3M, read-out: LC50 (the source's name)) was 6110 nM, the growth at 100 µM (PC-3 [7]) was -88% and the growth at 100 µM (NCI/ADR-RES) was -86%. The growth at 100 µM (OVCAR-4) was -91%, the growth at 100 µM (OVCAR-3) was -73% and the growth at 100 µM (M14 [8]) was -73%. For the same molecule, the growth at 100 µM (U-251 [9]) was -95%, the growth at 100 µM (SF-268) was -77% and the growth at 100 µM (COLO 205) was -94%. It also gave a growth at 100 µM (NCI-H322M) of -82%, a growth at 100 µM (CCRF-CEM [10]) of 8% and a growth at 1 µM (IGROV-1) of 72%. The growth at 1 µM (M14 [11]) was -47%, the growth at 1 µM (U-251 [12]) was -88% and the growth at 1 µM (SNB-19 [13]) was 82%. The growth at 1 µM (HOP-92) was 59%, the growth at 1 µM (MOLT-4 [14]) was -15% and the growth at 1 µM (CCRF-CEM [15]) was -17%. For the same molecule, the growth at 0.1 µM (DU-145 [16]) was 101%, the growth at 0.1 µM (U-251 [17]) was 92% and the growth at 0.1 µM (HCC 2998) was 104%. The growth at 0.01 µM (MDA-MB-468 [18]) was 92%, the growth at 0.01 µM (PC-3 [19]) was 98% and the growth at 0.01 µM (SNB-19 [20]) was 96%. The growth at 0.01 µM (SW-620) was 96%, the growth at 0.01 µM (KM12) was 96% and the growth at 0.01 µM (HCT-15) was 98%. The growth at 0.01 µM (NCI-H522 [21]) was 106% and the growth at 0.01 µM (MOLT-4 [22]) was 95%.
